Data reported in the kinase profiling compilation of Christmann-Franck et al. (2016).
One block for each compound: values may come before it.

Experiments:
Test in all cases: radiometric filter-binding kinase assay
TTBK1 (human) = TTBK1 (human) (UniProt Q5TCY1)
PRKCG (human) = PRKCG (human) (UniProt P05129)
PTK6 (human) = PTK6 (human) (UniProt Q13882)
[1] = test system: OXSR1 (human), O95747 [T185E]
STK16 (human) = STK16 (human) (UniProt O75716)
ABL1 (human) = ABL1 (human) (UniProt P00519)
MYLK (human) = MYLK (human) (UniProt Q15746)
MYLK (human), sequence (Q15746 whole entry, looked up): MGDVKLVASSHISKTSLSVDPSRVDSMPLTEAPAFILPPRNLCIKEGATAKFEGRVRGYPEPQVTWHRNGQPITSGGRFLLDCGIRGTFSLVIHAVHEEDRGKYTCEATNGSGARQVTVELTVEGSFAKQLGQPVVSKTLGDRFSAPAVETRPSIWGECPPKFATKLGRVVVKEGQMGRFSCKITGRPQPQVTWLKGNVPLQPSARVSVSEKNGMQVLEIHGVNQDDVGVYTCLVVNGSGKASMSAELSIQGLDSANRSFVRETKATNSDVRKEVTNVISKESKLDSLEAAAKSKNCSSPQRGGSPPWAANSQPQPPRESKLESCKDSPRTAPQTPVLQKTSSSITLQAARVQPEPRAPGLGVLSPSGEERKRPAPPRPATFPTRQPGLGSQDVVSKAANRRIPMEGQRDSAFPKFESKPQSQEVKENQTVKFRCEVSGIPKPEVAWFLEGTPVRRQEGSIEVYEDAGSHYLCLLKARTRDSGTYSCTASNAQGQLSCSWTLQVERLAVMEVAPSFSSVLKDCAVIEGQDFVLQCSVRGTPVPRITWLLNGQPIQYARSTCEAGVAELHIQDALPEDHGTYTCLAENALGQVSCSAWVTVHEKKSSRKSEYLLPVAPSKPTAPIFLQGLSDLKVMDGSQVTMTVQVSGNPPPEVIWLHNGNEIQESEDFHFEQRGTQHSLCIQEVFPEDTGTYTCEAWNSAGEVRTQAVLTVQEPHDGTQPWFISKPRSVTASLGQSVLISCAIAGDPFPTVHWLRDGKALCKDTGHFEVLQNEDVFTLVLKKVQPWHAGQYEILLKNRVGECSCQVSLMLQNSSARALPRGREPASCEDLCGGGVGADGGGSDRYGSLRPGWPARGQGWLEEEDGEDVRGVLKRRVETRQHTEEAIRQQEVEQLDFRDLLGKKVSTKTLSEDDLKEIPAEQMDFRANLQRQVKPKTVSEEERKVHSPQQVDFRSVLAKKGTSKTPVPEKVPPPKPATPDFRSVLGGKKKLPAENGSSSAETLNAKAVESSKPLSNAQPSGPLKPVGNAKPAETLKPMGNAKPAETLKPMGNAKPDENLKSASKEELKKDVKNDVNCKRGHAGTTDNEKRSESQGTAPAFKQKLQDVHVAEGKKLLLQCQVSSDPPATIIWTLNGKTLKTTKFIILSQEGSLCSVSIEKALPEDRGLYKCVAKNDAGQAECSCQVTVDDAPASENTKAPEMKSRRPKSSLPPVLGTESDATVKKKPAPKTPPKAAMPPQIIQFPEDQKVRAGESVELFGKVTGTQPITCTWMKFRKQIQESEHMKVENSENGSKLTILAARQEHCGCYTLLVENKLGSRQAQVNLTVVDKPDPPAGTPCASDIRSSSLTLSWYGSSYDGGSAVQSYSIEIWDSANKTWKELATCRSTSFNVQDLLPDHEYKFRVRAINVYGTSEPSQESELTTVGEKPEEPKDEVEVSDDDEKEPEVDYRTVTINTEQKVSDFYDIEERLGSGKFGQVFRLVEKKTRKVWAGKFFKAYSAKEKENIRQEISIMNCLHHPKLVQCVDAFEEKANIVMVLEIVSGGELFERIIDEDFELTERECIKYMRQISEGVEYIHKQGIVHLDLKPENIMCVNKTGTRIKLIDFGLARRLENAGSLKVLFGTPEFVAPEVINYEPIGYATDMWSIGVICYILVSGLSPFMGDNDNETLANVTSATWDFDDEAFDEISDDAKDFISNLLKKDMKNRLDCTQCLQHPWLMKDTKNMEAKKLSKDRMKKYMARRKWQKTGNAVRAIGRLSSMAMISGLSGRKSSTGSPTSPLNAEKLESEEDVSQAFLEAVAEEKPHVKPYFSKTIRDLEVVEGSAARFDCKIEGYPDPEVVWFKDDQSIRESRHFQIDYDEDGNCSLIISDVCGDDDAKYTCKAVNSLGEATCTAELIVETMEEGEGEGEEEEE

TEK (human) = TEK (human) (UniProt Q02763)
STK33 (human) = STK33 (human) (UniProt Q9BYT3)
STK33 (human), sequence (Q9BYT3 whole entry, looked up): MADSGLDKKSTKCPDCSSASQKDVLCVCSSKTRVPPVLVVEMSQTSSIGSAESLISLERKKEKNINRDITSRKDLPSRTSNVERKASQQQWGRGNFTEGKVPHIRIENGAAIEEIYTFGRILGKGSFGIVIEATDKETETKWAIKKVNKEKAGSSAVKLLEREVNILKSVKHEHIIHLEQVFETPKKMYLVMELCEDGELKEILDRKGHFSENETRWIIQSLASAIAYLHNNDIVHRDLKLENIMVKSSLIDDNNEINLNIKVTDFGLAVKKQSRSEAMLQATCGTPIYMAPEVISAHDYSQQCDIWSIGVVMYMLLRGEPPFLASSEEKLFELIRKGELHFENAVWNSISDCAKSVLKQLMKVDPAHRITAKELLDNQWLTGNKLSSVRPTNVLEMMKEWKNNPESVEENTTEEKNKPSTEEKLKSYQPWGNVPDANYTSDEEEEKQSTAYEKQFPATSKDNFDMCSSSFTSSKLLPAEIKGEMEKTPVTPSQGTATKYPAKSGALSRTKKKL

TESK1 (human) = TESK1 (human) (UniProt Q15569)
ZAP70 (human) = ZAP70 (human) (UniProt P43403)
TLK1 (human) = TLK1 (human) (UniProt Q9UKI8)
TLK1 (human), sequence (Q9UKI8 whole entry, looked up): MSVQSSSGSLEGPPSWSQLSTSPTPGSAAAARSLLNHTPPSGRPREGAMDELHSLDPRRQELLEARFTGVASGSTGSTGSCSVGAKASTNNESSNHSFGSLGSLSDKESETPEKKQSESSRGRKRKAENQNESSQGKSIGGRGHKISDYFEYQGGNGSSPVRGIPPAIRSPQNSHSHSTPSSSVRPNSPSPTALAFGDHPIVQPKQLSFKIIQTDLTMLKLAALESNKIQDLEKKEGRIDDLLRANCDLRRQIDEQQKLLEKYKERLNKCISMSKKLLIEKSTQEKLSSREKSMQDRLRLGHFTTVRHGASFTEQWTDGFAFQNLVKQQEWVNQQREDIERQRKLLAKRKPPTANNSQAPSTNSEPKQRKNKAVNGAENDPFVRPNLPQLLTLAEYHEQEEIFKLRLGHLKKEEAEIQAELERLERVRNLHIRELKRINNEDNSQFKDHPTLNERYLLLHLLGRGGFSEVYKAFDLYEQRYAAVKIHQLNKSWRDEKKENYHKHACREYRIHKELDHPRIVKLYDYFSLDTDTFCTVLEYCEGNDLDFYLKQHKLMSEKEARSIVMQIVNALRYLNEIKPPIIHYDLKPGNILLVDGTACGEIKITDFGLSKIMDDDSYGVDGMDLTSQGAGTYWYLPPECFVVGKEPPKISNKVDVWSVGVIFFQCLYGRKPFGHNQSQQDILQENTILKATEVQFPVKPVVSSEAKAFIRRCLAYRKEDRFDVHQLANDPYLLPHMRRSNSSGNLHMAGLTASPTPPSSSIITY

TSSK1B (human) = TSSK1B (human) (UniProt Q9BXA7)
EIF2AK3 (human) = EIF2AK3 (human) (UniProt Q9NZJ5)
EIF2AK3 (human), sequence (Q9NZJ5 whole entry, looked up): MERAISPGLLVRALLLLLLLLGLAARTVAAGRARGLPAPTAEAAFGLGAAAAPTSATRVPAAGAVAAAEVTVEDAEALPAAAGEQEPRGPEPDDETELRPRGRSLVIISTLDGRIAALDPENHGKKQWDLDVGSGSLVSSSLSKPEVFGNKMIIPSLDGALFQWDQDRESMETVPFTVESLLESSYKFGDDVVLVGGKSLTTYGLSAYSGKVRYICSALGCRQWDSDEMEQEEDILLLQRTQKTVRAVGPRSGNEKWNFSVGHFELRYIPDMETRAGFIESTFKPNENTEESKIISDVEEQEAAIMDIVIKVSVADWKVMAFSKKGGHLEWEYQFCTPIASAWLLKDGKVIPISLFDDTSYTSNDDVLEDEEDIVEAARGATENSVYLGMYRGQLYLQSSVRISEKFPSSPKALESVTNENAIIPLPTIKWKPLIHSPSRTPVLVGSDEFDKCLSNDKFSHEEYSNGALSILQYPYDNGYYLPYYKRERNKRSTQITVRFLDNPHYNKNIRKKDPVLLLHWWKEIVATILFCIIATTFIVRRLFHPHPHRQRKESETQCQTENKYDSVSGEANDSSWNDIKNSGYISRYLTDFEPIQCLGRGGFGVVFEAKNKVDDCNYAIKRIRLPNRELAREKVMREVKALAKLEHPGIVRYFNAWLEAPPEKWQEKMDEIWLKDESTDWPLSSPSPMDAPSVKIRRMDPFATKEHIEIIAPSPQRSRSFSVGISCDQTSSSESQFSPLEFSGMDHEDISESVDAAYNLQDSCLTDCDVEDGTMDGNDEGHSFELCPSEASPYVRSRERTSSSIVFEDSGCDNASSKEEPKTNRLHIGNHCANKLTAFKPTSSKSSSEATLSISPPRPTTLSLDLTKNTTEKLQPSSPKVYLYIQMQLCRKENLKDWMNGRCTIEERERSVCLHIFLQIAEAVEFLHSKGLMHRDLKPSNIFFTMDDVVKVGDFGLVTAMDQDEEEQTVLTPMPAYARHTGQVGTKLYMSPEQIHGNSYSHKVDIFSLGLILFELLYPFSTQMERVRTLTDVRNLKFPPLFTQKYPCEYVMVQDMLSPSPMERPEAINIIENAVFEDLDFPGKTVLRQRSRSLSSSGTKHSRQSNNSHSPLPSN

IRAK1 (human) = IRAK1 (human) (UniProt P51617)

- residual activity (TTBK1 (human); compound 100.0 µM): 94%
- residual activity (PRKCG (human); compound 100.0 µM): 55%
- residual activity (PTK6 (human); compound 100.0 µM): 100%
- residual activity ([1]; compound 100.0 µM): 97%
- residual activity (STK16 (human); compound 100.0 µM): 111%
- residual activity (ABL1 (human); compound 100.0 µM): 92%
- residual activity (MYLK (human); compound 100.0 µM): 97%
- residual activity (TEK (human); compound 100.0 µM): 103%
- residual activity (STK33 (human); compound 100.0 µM): 107%
- residual activity (TESK1 (human); compound 100.0 µM): 73%
- residual activity (ZAP70 (human); compound 100.0 µM): 103%
- residual activity (TLK1 (human); compound 100.0 µM): 108%
- residual activity (TSSK1B (human); compound 100.0 µM): 107%
- residual activity (EIF2AK3 (human); compound 100.0 µM): 94%
- residual activity (IRAK1 (human); compound 100.0 µM): 104%
Compound: Cc1cc(N=Nc2cc(S(=O)(=O)O)c(C)cc2C)c(N)cc1O

- residual activity (TTBK1 (human); compound 1.0 µM): 110%
- residual activity (TTBK1 (human); compound 10.0 µM): 100%
- residual activity (PRKCG (human); compound 1.0 µM): 111%
- residual activity (PRKCG (human); compound 10.0 µM): 99%
- residual activity (PTK6 (human); compound 1.0 µM): 96%
- residual activity (PTK6 (human); compound 10.0 µM): 97%
- residual activity ([1]; compound 1.0 µM): 102%
- residual activity ([1]; compound 10.0 µM): 103%
- residual activity (STK16 (human); compound 1.0 µM): 87%
- residual activity (STK16 (human); compound 10.0 µM): 100%
- residual activity (ABL1 (human); compound 1.0 µM): 93%
- residual activity (ABL1 (human); compound 10.0 µM): 103%
- residual activity (MYLK (human); compound 1.0 µM): 87%
- residual activity (MYLK (human); compound 10.0 µM): 100%
- residual activity (TEK (human); compound 1.0 µM): 93%
- residual activity (TEK (human); compound 10.0 µM): 95%
- residual activity (STK33 (human); compound 10.0 µM): 98%
- residual activity (TESK1 (human); compound 1.0 µM): 116%
- residual activity (TESK1 (human); compound 10.0 µM): 108%
- residual activity (ZAP70 (human); compound 1.0 µM): 75%
- residual activity (ZAP70 (human); compound 10.0 µM): 77%
- residual activity (TLK1 (human); compound 1.0 µM): 84%
- residual activity (TLK1 (human); compound 10.0 µM): 101%
- residual activity (TSSK1B (human); compound 10.0 µM): 103%
- residual activity (EIF2AK3 (human); compound 1.0 µM): 101%
- residual activity (EIF2AK3 (human); compound 10.0 µM): 97%
- residual activity (IRAK1 (human); compound 1.0 µM): 79%
- residual activity (IRAK1 (human); compound 10.0 µM): 56%
Compound: CC(C)(C#N)c1ccc(N2C(=O)OCc3cnc4ccc(-c5cnc6ccccc6c5)cc4c32)cc1

- residual activity (TTBK1 (human); compound 1.0 µM): 124%
- residual activity (TTBK1 (human); compound 10.0 µM): 107%
- residual activity (PRKCG (human); compound 1.0 µM): 99%
- residual activity (PRKCG (human); compound 10.0 µM): 94%
- residual activity (PTK6 (human); compound 1.0 µM): 101%
- residual activity (PTK6 (human); compound 10.0 µM): 92%
- residual activity ([1]; compound 10.0 µM): 115%
- residual activity (STK16 (human); compound 1.0 µM): 87%
- residual activity (STK16 (human); compound 10.0 µM): 96%
- residual activity (ABL1 (human); compound 1.0 µM): 106%
- residual activity (ABL1 (human); compound 10.0 µM): 112%
- residual activity (MYLK (human); compound 1.0 µM): 102%
- residual activity (MYLK (human); compound 10.0 µM): 89%
- residual activity (TEK (human); compound 1.0 µM): 110%
- residual activity (TEK (human); compound 10.0 µM): 118%
- residual activity (STK33 (human); compound 1.0 µM): 82%
- residual activity (STK33 (human); compound 10.0 µM): 90%
- residual activity (TESK1 (human); compound 1.0 µM): 94%
- residual activity (TESK1 (human); compound 10.0 µM): 82%
- residual activity (ZAP70 (human); compound 1.0 µM): 110%
- residual activity (TLK1 (human); compound 1.0 µM): 113%
- residual activity (TLK1 (human); compound 10.0 µM): 115%
- residual activity (TSSK1B (human); compound 1.0 µM): 87%
- residual activity (TSSK1B (human); compound 10.0 µM): 91%
- residual activity (EIF2AK3 (human); compound 1.0 µM): 106%
- residual activity (EIF2AK3 (human); compound 10.0 µM): 105%
- residual activity (IRAK1 (human); compound 1.0 µM): 105%
Compound: Cc1ccc(=O)n(-c2ccccc2)c1

Compound: O=C(N[C@@H](COc1ccc2[nH]c(=O)[nH]c2c1)c1ccccc1)c1cccn(Cc2ccc(F)c(F)c2)c1=O
- residual activity (TTBK1 (human); compound 0.1 µM): 101%
- residual activity (TTBK1 (human); compound 1.0 µM): 110%
- residual activity (TTBK1 (human); compound 10.0 µM): 106%
- residual activity (PRKCG (human); compound 0.1 µM): 91%
- residual activity (PRKCG (human); compound 1.0 µM): 103%
- residual activity (PTK6 (human); compound 0.1 µM): 120%
- residual activity (PTK6 (human); compound 1.0 µM): 129%
- residual activity (PTK6 (human); compound 10.0 µM): 119%
- residual activity ([1]; compound 0.1 µM): 97%
- residual activity ([1]; compound 1.0 µM): 96%
- residual activity ([1]; compound 10.0 µM): 83%
- residual activity (STK16 (human); compound 0.1 µM): 101%
- residual activity (STK16 (human); compound 1.0 µM): 118%
- residual activity (STK16 (human); compound 10.0 µM): 106%
- residual activity (ABL1 (human); compound 0.1 µM): 106%
- residual activity (ABL1 (human); compound 1.0 µM): 105%
- residual activity (ABL1 (human); compound 10.0 µM): 98%
- residual activity (MYLK (human); compound 0.1 µM): 97%
- residual activity (MYLK (human); compound 1.0 µM): 97%
- residual activity (MYLK (human); compound 10.0 µM): 89%
- residual activity (TEK (human); compound 0.1 µM): 104%
- residual activity (TEK (human); compound 1.0 µM): 100%
- residual activity (TEK (human); compound 10.0 µM): 96%
- residual activity (STK33 (human); compound 0.1 µM): 92%
- residual activity (STK33 (human); compound 1.0 µM): 107%
- residual activity (STK33 (human); compound 10.0 µM): 79%
- residual activity (TESK1 (human); compound 0.1 µM): 98%
- residual activity (TESK1 (human); compound 1.0 µM): 88%
- residual activity (TESK1 (human); compound 10.0 µM): 107%
- residual activity (ZAP70 (human); compound 0.1 µM): 102%
- residual activity (ZAP70 (human); compound 1.0 µM): 106%
- residual activity (TLK1 (human); compound 0.1 µM): 97%
- residual activity (TLK1 (human); compound 1.0 µM): 103%
- residual activity (TLK1 (human); compound 10.0 µM): 99%
- residual activity (TSSK1B (human); compound 0.1 µM): 93%
- residual activity (TSSK1B (human); compound 1.0 µM): 103%
- residual activity (TSSK1B (human); compound 10.0 µM): 86%
- residual activity (EIF2AK3 (human); compound 0.1 µM): 107%
- residual activity (EIF2AK3 (human); compound 1.0 µM): 104%
- residual activity (EIF2AK3 (human); compound 10.0 µM): 96%
- residual activity (IRAK1 (human); compound 0.1 µM): 117%
- residual activity (IRAK1 (human); compound 1.0 µM): 118%
- residual activity (IRAK1 (human); compound 10.0 µM): 108%
